SMILES strings stand for the structures.

What all share (format): functional, cell-based
The test system of one assay is A549. Briefly: Antiproliferative activity against human A549 cells assessed as cell viability measured after 48 hrs incubation by MTT assay. The settings on record: A549, 48 h. On the technique in general: Tetrazolium dyes change colour on reduction, which living cells bring about.
The next assay concerns HepG2. In words: Antiproliferative activity against human HepG2 cells assessed as cell viability measured after 48 hrs incubation by MTT assay. Particulars: HepG2, 48 h.
Another assay relates to MCF7. In words: Antiproliferative activity against human MCF7 cells assessed as cell viability measured after 48 hrs incubation by MTT assay. Particulars: MCF7, 48 h.

In the case of `CC(C)[C@@H](C)/C=C/[C@@H](C)[C@H]1CC[C@@H]2[C@]1(C)CC[C@H]1[C@]23C=C[C@]2(C[C@@H](OC(=O)N4CCN(C(=O)CN5C(=O)S/C(=C\c6ccc(Cl)cc6Cl)C5=O)CC4)CC[C@]12C)OO3`, the IC50 (commonly the point on the concentration scale where inhibition reaches its midpoint) in the assay with A549 came out at 11.7 µM; in the assay on HepG2 it was 15.6 µM; with MCF7, 12.9 µM.

For the molecule `CC(C)[C@@H](C)/C=C/[C@@H](C)[C@H]1CC[C@@H]2[C@]1(C)CC[C@H]1[C@]23C=C[C@]2(C[C@@H](OC(=O)N4CCN(C(=O)CN5C(=O)S/C(=C\c6cccc7ccccc67)C5=O)CC4)CC[C@]12C)OO3`, the IC50 amounted to 7.88 µM in the assay on A549, 14.5 µM in the assay on HepG2 and 9.41 µM with MCF7.

For `CC(C)[C@@H](C)/C=C/[C@@H](C)[C@H]1CC[C@@H]2[C@]1(C)CC[C@H]1[C@]23C=C[C@]2(C[C@@H](OC(=O)NCCNC(=O)CN4C(=O)S/C(=C\c5ccc(C(C)(C)C)cc5)C4=O)CC[C@]12C)OO3`, the IC50 in the assay on A549 stood at 6.68 µM; with HepG2, 9.86 µM; in the assay with MCF7 it was 10.7 µM.

As to `CC(C)[C@@H](C)/C=C/[C@@H](C)[C@H]1CC[C@@H]2[C@]1(C)CC[C@H]1[C@]23C=C[C@]2(C[C@@H](OC(=O)CN4C(=O)S/C(=C/c5ccc(C(C)(C)C)cc5)C4=O)CC[C@]12C)OO3`, the results for the IC50 with A549, in the assay with HepG2 and with MCF7 were 8.31 µM, 15.4 µM and 9.44 µM, respectively.

For the molecule `CC(C)[C@@H](C)/C=C/[C@@H](C)[C@H]1CC[C@@H]2[C@]1(C)CC[C@H]1[C@]23C=C[C@]2(C[C@@H](OC(=O)CN4C(=O)S/C(=C/c5ccc(Br)cc5)C4=O)CC[C@]12C)OO3`, the IC50 with A549 came to 9.5 µM; in the assay with HepG2 it was 17.8 µM; with MCF7, 12.3 µM.

For the molecule `CC(C)[C@@H](C)/C=C/[C@@H](C)[C@H]1CC[C@@H]2[C@]1(C)CC[C@H]1[C@]23C=C[C@]2(C[C@@H](OC(=O)CN4C(=O)S/C(=C/c5cccc6ccccc56)C4=O)CC[C@]12C)OO3`, the values for the IC50 in the assay with A549, with HepG2 and in the assay with MCF7 were 10.3 µM, 6.08 µM and 14.7 µM, respectively.

As for `CC(C)[C@@H](C)/C=C/[C@@H](C)[C@H]1CC[C@@H]2[C@]1(C)CC[C@H]1[C@]23C=C[C@]2(C[C@@H](OC(=O)CN4C(=O)S/C(=C/c5ccc(Cl)cc5Cl)C4=O)CC[C@]12C)OO3`, the IC50 with A549 worked out at 11 µM; in the assay on HepG2, 13.1 µM; with MCF7, 10.2 µM.

On to `CC(C)[C@@H](C)/C=C/[C@@H](C)[C@H]1CC[C@@H]2[C@]1(C)CC[C@H]1[C@]23C=C[C@]2(C[C@@H](OC(=O)CN4C(=O)S/C(=C/c5ccc(F)cc5)C4=O)CC[C@]12C)OO3`, for which the IC50 in the assay on A549 was 11.7 µM; with HepG2, 14.7 µM; in the assay on MCF7 it was 16.1 µM.

Consider `CC(C)[C@@H](C)/C=C/[C@@H](C)[C@H]1CC[C@@H]2[C@]1(C)CC[C@H]1[C@]23C=C[C@]2(C[C@@H](OC(=O)N4CCN(C(=O)CN5C(=O)S/C(=C\c6ccc(F)cc6)C5=O)CC4)CC[C@]12C)OO3`, for which the IC50 in the assay with A549 was found to be 9.34 µM; in the assay on HepG2 it was 12 µM; in the assay on MCF7, 12.2 µM.

Regarding `COc1ccccc1/C=C1/SC(=O)N(CC(=O)O[C@H]2CC[C@]3(C)[C@H]4CC[C@]5(C)[C@@H]([C@H](C)/C=C/[C@H](C)C(C)C)CC[C@H]5[C@@]45C=C[C@]3(C2)OO5)C1=O`, the IC50 was 13.1 µM with A549, 18.9 µM in the assay on HepG2 and 14.3 µM in the assay on MCF7.

For the molecule `CC(C)/C=C1\SC(=O)N(CC(=O)N2CCN(C(=O)O[C@H]3CC[C@]4(C)[C@H]5CC[C@]6(C)[C@@H]([C@H](C)/C=C/[C@H](C)C(C)C)CC[C@H]6[C@@]56C=C[C@]4(C3)OO6)CC2)C1=O`, the figures for the IC50 with A549, in the assay with HepG2 and with MCF7 were 7.69 µM, 10.5 µM and 8.89 µM, respectively.

Turning to `CC(C)[C@@H](C)/C=C/[C@@H](C)[C@H]1CC[C@@H]2[C@]1(C)CC[C@H]1[C@]23C=C[C@]2(C[C@@H](OC(=O)N4CCN(C(=O)CN5C(=O)S/C(=C\c6ccsc6)C5=O)CC4)CC[C@]12C)OO3`, the IC50 was determined as 8.14 µM in the assay on A549, 16.8 µM in the assay with HepG2 and 13.6 µM in the assay on MCF7.

For the origin of these results see ChEMBL document CHEMBL6078657, “Thiazolidinedione-based structure modification of ergosterol peroxide provides thiazolidinedione-conjugated derivatives as potent agents against breast cancer cells through a PI3K/AKT/mTOR pathway” (Bioorg Med Chem, 2025).
